Legend:
HBV = assay: HBV-DNA antiviral assay using HepG2.117 cells; assay type: cell-based, HBV genotype D; settings: Hepatitis B virus, 72 h; HBV DNA inhibition, intracellular HBV DNA by qPCR, HepG2.117 cells, 3 days incubation; read-out: EC50
[1] = Cell viability by CellTiter-Glo 2.0 (intracellular ATP) in HepG2.117 cells; assay type: cell-based; settings: human, CellTiter-Glo 2.0, HepG2.117 cells, 3 days incubation

| Structure (SMILES) | EC50 (HBV) | CC50 at 3 days [1] |
| --- | --- | --- |
| C=C[C@H](C)Nc1nc2c(c(=O)n1-c1cc3ncn(C)c3cc1F)C[C@@H](C)N(C(=O)c1ccc(Br)c(C(F)(F)F)c1)C2 [Compound 32a, (R)-7-(4-bromo-3-(trifluoromethyl)benzoyl)-2-(((S)-but-3-en-2-yl)amino)-3-(6-fluoro-1-methyl-1H-benzo[d]imidazol-5-yl)-6-methyl-5,6,7,8-tetrahydropyrido[3,4-d]pyrimidin-4(3H)-one] | < 0.05 µM | 29.5 µM |
| C=C[C@H](C)Nc1nc2c(c(=O)n1-c1ccc3c(cnn3C)c1)C[C@@H](C)N(C(=O)c1ccc(Br)c(C(F)(F)F)c1)C2 [Compound 33, (6R)-7-[4-bromo-3-(trifluoromethyl)benzoyl]-6-methyl-2-[[(1S)-1-methylallyl]amino]-3-(1-methylindazol-5-yl)-6,8-dihydro-5H-pyrido[3,4-d]pyrimidin-4-one] | < 0.05 µM | > 50 µM |
| C=C[C@H](C)Nc1nc2c(c(=O)n1-c1cc(Cl)c3c(cnn3C)c1)C[C@@H](C)N(C(=O)c1ccc(Br)c(C(F)(F)F)c1)C2 [Compound 34] | < 0.05 µM | 11.6 µM |
| C=C[C@H](C)Nc1nc2c(c(=O)n1-c1ccc3c(c1)ncn3CC(F)(F)F)C[C@@H](C)N(C(=O)c1ccc(Br)c(C(F)(F)F)c1)C2 [Compound 35, (6R)-7-[4-bromo-3-(trifluoromethyl)benzoyl]-6-methyl-2-[[(1S)-1-methylallyl]amino]-3-[1-(2,2,2-trifluoroethyl)benzimidazol-5-yl]-6,8-dihydro-5H-pyrido[3,4-d]pyrimidin-4-one] | < 0.05 µM | 28.5 µM |
| C=C[C@H](C)Nc1nc2c(c(=O)n1-c1ccn3c(C)nnc3c1)C[C@@H](C)N(C(=O)c1ccc(Br)c(C(F)(F)F)c1)C2 [Compound 36, (6R)-7-[4-bromo-3-(trifluoromethyl)benzoyl]-6-methyl-2-[[(1S)-1-methylallyl]amino]-3-(3-methyl-[1,2,4]triazolo[4,3-a]pyridin-7-yl)-6,8-dihydro-5H-pyrido[3,4-d]pyrimidin-4-one] | < 0.05 µM | > 50 µM |
| C=C[C@H](C)Nc1nc2c(c(=O)n1-c1ccc(-c3cnn(C)c3)cn1)C[C@@H](C)N(C(=O)c1ccc(Br)c(C(F)(F)F)c1)C2 [Compound 37, (6R)-7-[4-bromo-3-(trifluoromethyl)benzoyl]-6-methyl-2-[[(1S)-1-methylallyl]amino]-3-[5-(1-methylpyrazol-4-yl)-2-pyridyl]-6,8-dihydro-5H-pyrido[3,4-d]pyrimidin-4-one] | < 0.05 µM | > 50 µM |
| C=C[C@H](C)Nc1nc2c(c(=O)n1-c1ccc3c(c1)ncn3C1CC1)C[C@@H](C)N(C(=O)c1ccc(Br)c(C(F)(F)F)c1)C2 [Compound 38, (6R)-7-[4-bromo-3-(trifluoromethyl)benzoyl]-3-(1-cyclopropylbenzimidazol-5-yl)-6-methyl-2-[[(1S)-1-methylallyl]amino]-6,8-dihydro-5H-pyrido[3,4-d]pyrimidin-4-one] | < 0.05 µM | 24.3 µM |
| C=C[C@H](C)Nc1nc2c(c(=O)n1-c1ccc(OC[C@@H](C)O)cn1)C[C@@H](C)N(C(=O)c1ccc(Br)c(C(F)(F)F)c1)C2 [Compound 39, (6R)-7-[4-bromo-3-(trifluoromethyl)benzoyl]-3-[5-[(2R)-2-hydroxypropoxy]-2-pyridyl]-6-methyl-2-[[(1S)-1-methylallyl]amino]-6,8-dihydro-5H-pyrido[3,4-d]pyrimidin-4-one] | < 0.05 µM | 28.1 µM |
| C=C[C@H](C)Nc1nc2c(c(=O)n1-c1ccc3c(ncn3C)n1)C[C@@H](C)N(C(=O)c1ccc(Br)c(C(F)(F)F)c1)C2 [Compound 40, (6R)-7-[4-bromo-3-(trifluoromethyl)benzoyl]-6-methyl-2-[[(1S)-1-methylallyl]amino]-3-(1-methylimidazo[4,5-b]pyridin-5-yl)-6,8-dihydro-5H-pyrido[3,4-d]pyrimidin-4-one] | < 0.05 µM | > 50 µM |
| C=C[C@H](C)Nc1nc2c(c(=O)n1-c1ccc(C(=O)NC)nc1)C[C@@H](C)N(C(=O)c1ccc(Br)c(C(F)(F)F)c1)C2 [Compound 41, 5-[(6R)-7-[4-bromo-3-(trifluoromethyl)benzoyl]-6-methyl-2-[[(1S)-1-methylallyl]amino]-4-oxo-6,8-dihydro-5H-pyrido[3,4-d]pyrimidin-3-yl]-N-methyl-pyridine-2-carboxamide] | < 0.05 µM | > 50 µM |
| C=C[C@H](C)Nc1nc2c(c(=O)n1-c1cnc(C(=O)NC)c(Cl)c1)C[C@@H](C)N(C(=O)c1ccc(Br)c(C(F)(F)F)c1)C2 [Compound 42, 5-[(6R)-7-[4-bromo-3-(trifluoromethyl)benzoyl]-6-methyl-2-[[(1S)-1-methylallyl]amino]-4-oxo-6,8-dihydro-5H-pyrido[3,4-d]pyrimidin-3-yl]-3-chloro-N-methyl-pyridine-2-carboxamide] | < 0.05 µM | > 50 µM |
| C=C[C@H](C)Nc1nc2c(c(=O)n1-c1ncc(C(=O)NC)cn1)C[C@@H](C)N(C(=O)c1ccc(Br)c(C(F)(F)F)c1)C2 [Compound 43, 2-[(6R)-7-[4-bromo-3-(trifluoromethyl)benzoyl]-6-methyl-2-[[(1S)-1-methylallyl]amino]-4-oxo-6,8-dihydro-5H-pyrido[3,4-d]pyrimidin-3-yl]-N-methyl-pyrimidine-5-carboxamide] | < 0.05 µM | > 50 µM |
| C=C[C@H](C)Nc1nc2c(c(=O)n1-c1cnc3c(ncn3C)n1)C[C@@H](C)N(C(=O)c1ccc(Br)c(C(F)(F)F)c1)C2 [Compound 46, (6R)-7-[4-bromo-3-(trifluoromethyl)benzoyl]-6-methyl-2-[[(1S)-1-methylallyl]amino]-3-(1-methylimidazo[4,5-b]pyrazin-5-yl)-6,8-dihydro-5H-pyrido[3,4-d]pyrimidin-4-one] | < 0.05 µM | > 50 µM |
| C=C[C@H](C)Nc1nc2c(c(=O)n1-c1cc(C)c3c(c1)ncn3C)C[C@@H](C)N(C(=O)c1ccc(Br)c(C(F)(F)F)c1)C2 [Compound 47, (6R)-7-[4-bromo-3-(trifluoromethyl)benzoyl]-3-(1,7-dimethylbenzimidazol-5-yl)-6-methyl-2-[[(1S)-1-methylallyl]amino]-6,8-dihydro-5H-pyrido[3,4-d]pyrimidin-4-one] | < 0.05 µM | 23.7 µM |
| C=C[C@H](C)Nc1nc2c(c(=O)n1-c1cc(F)c3c(c1)ncn3C)C[C@@H](C)N(C(=O)c1ccc(Br)c(C(F)(F)F)c1)C2 [Compound 48, (6R)-7-[4-bromo-3-(trifluoromethyl)benzoyl]-3-(7-fluoro-1-methyl-benzimidazol-5-yl)-6-methyl-2-[[(1S)-1-methylallyl]amino]-6,8-dihydro-5H-pyrido[3,4-d]pyrimidin-4-one] | < 0.05 µM | 26 µM |
| C=C[C@H](C)Nc1nc2c(c(=O)n1-c1cc(F)c3ncn(C)c3c1)C[C@@H](C)N(C(=O)c1ccc(Br)c(C(F)(F)F)c1)C2 [Compound 49, (6R)-7-[4-bromo-3-(trifluoromethyl)benzoyl]-3-(7-fluoro-3-methyl-benzimidazol-5-yl)-6-methyl-2-[[(1S)-1-methylallyl]amino]-6,8-dihydro-5H-pyrido[3,4-d]pyrimidin-4-one] | < 0.05 µM | 23 µM |

From US11957683B2, “Bicyclic compounds” (Aligos Therapeutics, Inc., priority 2021, dated 2024)
